# Data as given in patent US11753408B2, “Compounds and method for blocking transmission of malarial parasite” (The United States of America, as represented by the …, priority 2016, dated 2023).
# What was measured:
# [1] = Solubility at pH 7.4; format: physicochemical
# [2] = test system: Asexual parasites of P. falciparum strain 3D7; assay: In vitro drug activity on asexual parasites (SYBR Green assay); format: cell-based, Plasmodium falciparum
# In short: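 3D7 parasites at 0.5% parasitemia and 2% hematocrit were exposed to drugs (DMSO ≤0.5%) for 72 h under standard culture conditions, in duplicate. After freeze-thaw lysis, SYBR Green I lysis buffer was added for 30 min at room temperature, and fluorescence was read at 490/520 nm.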
# [3] = Microsomal stability (rat); format: in vitro ADME; conditions: rat microsomes
# [4] = PAMPA permeability; format: in vitro ADME
# [5] = biological target: mTOR (Homo sapiens, UniProt P42345); assay: mTOR activity (no method described); format: biochemical
# [6] = test system: Stage III-V gametocytes (blood stage P. falciparum parasites); assay: In vitro drug activity on gametocytes (AlamarBlue viability assay); format: cell-based, Plasmodium falciparum; conditions: read-out: Gametocyte EC50
# In short: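 P. falciparum 3D7 stage III–V gametocytes (also HB3, Dd2), enriched by 50 mM N-acetylglucosamine and Percoll gradient, seeded at 20,000/well with compound for 72 h at 37° C, 5% CO2. AlamarBlue then added for 24 h; viability read as fluorescence (Ex 525, Em 598 nm).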
Sol @ pH 7.4 [1],EC50 [2],Microsomal Stability (rat) T1/2 [3],PAMPA Permeability [4],mTOR [5],SMILES,EC50 [6]
14.8 ug/mL,47.9 nM,5.9 min,285 ×10⁻⁶ cm/s,779.9 nM,O=C(c1ccc(-n2c(=O)ccc3cnc4ccc(-c5ccc(Cl)cc5)cc4c32)cc1)N(CCO)CCO [Compound 105],94.3 nM
<1.0 ug/mL,64 nM,2.1 min,621 ×10⁻⁶ cm/s,1735 nM,O=C(c1ccc(-n2c(=O)ccc3cnc4ccc(-c5ccc(Cl)cc5)cc4c32)cc1)N1CCCC1 [Compound 106],126 nM
<1.0 ug/mL,61.4 nM,<1.0 min,119 ×10⁻⁶ cm/s,1165 nM,O=C(c1ccc(-n2c(=O)ccc3cnc4ccc(-c5ccc(Cl)cc5)cc4c32)cc1)N1CCC1 [Compound 108],59.1 nM
<1.0 ug/mL,8.14 nM,9 min,< 1 ×10⁻⁶ cm/s,229.4 nM,CNC(=O)c1ccc(-n2c(=O)ccc3cnc4ccc(-c5ccc(Cl)cc5)cc4c32)cc1Cl [Compound 115],6.21 nM
<1.0 ug/mL,22 nM,<1.0 min,383 ×10⁻⁶ cm/s,454.6 nM,O=C(c1ccc(-n2c(=O)ccc3cnc4ccc(-c5ccc(Cl)cc5)cc4c32)cc1Cl)N1CCOCC1 [Compound 116],65 nM
<1.0 ug/mL,24 nM,1.7 min,1240 ×10⁻⁶ cm/s,372.4 nM,O=C(c1ccc(-n2c(=O)ccc3cnc4ccc(-c5ccc(Cl)cc5)cc4c32)cc1C(F)(F)F)N1CCOCC1 [Compound 126],118 nM
<1.0 ug/mL,63.1 nM,<1.0 min,2320 ×10⁻⁶ cm/s,736.2 nM,CCN(CC)C(=O)c1ccc(-n2c(=O)ccc3cnc4ccc(-c5ccc(Cl)cc5)cc4c32)cc1 [Compound 132],344 nM
<1.0 ug/mL,4000 nM,>30.0 min,< 5.4 ×10⁻⁶ cm/s,inactive,N#Cc1cc(NC(=O)c2ccc(-n3c(=O)ccc4cnc5ccc(-c6ccc(Cl)cc6)cc5c43)cc2)ccc1F [Compound 133],10100 nM
>77.0 ug/mL,59.2 nM,9.6 min,1390 ×10⁻⁶ cm/s,6373 nM,CN1CC2CC1CN2C(=O)c1ccc(-n2c(=O)ccc3cnc4ccc(-c5ccc(Cl)cc5)cc4c32)cc1 (stereo not drawn) [Compound 140],272 nM
<1.0 ug/mL,63.1 nM,1.6 min,1420 ×10⁻⁶ cm/s,671.6 nM,CN(C(=O)c1ccc(-n2c(=O)ccc3cnc4ccc(-c5ccc(Cl)cc5)cc4c32)cc1)C1CC1 [Compound 143],242 nM
<1.0 ug/mL,160 nM,8 min,< 1 ×10⁻⁶ cm/s,765.7 nM,O=C(NC1CCC1)c1ccc(-n2c(=O)ccc3cnc4ccc(-c5ccc(Cl)cc5)cc4c32)cc1 [Compound 154],102 nM
<1.0 ug/mL,1240 nM,10.7 min,< 1 ×10⁻⁶ cm/s,27970 nM,O=C(NC1CCCCC1)c1ccc(-n2c(=O)ccc3cnc4ccc(-c5ccc(Cl)cc5)cc4c32)cc1 [Compound 155],3110 nM
<1.0 ug/mL,687 nM,5.6 min,< 1 ×10⁻⁶ cm/s,67630 nM,O=C(NC1CCCC1)c1ccc(-n2c(=O)ccc3cnc4ccc(-c5ccc(Cl)cc5)cc4c32)cc1 [Compound 156],1580 nM

# More lines, now with the values behind:
SMILES,Sol @ pH 7.4 [1],EC50 [2],Microsomal Stability (rat) T1/2 [3],PAMPA Permeability [4],mTOR [5],EC50 [6]
O=C(c1ccc(-n2c(=O)ccc3cnc4ccc(-c5ccc(F)cc5)cc4c32)cc1)N1CCOCC1 [Compound 107],<1.0 ug/mL,32.3 nM,6.9 min,10.1 ×10⁻⁶ cm/s,541.4 nM,65.9 nM
O=C(c1ccc(-n2c(=O)ccc3cnc4ccc(-c5ccc(Cl)cc5)cc4c32)cc1)N1CCN(CCO)CC1 [Compound 109],4.2 ug/mL,60.7 nM,12.3 min,227 ×10⁻⁶ cm/s,3260 nM,18 nM
O=C1Cc2cc(-c3ccc4ncc5ccc(=O)n(-c6ccc(C(=O)N7CCOCC7)cc6)c5c4c3)ccc2N1 [Compound 127],7.3 ug/mL,105 nM,12.2 min,9.1 ×10⁻⁶ cm/s,338.7 nM,169 nM
O=C(c1ccc(-n2c(=O)ccc3cnc4ccc(-c5cccc(O)c5)cc4c32)cc1)N1CCOCC1 [Compound 128],1.5 ug/mL,6.05 nM,12.7 min,735 ×10⁻⁶ cm/s,310.6 nM,31.4 nM
O=C1NCc2cc(-c3ccc4ncc5ccc(=O)n(-c6ccc(C(=O)N7CCOCC7)cc6)c5c4c3)ccc21 [Compound 129],20.3 ug/mL,1440 nM,>30.0 min,5.4 ×10⁻⁶ cm/s,856.7 nM,680 nM
Nc1cccc(-c2ccc3ncc4ccc(=O)n(-c5ccc(C(=O)N6CCOCC6)cc5)c4c3c2)c1 [Compound 130],9.2 ug/mL,20.2 nM,>30.0 min,467 ×10⁻⁶ cm/s,202.1 nM,72.2 nM
O=C(O)c1cccc(-c2ccc3ncc4ccc(=O)n(-c5ccc(C(=O)N6CCOCC6)cc5)c4c3c2)c1 [Compound 131],>75.0 ug/mL,17500 nM,>30.0 min,1.9 ×10⁻⁶ cm/s,1557 nM,17400 nM
O=C(c1ccc(-n2c(=O)ccc3cnc4ccc(-c5ccc(Cl)cc5O)cc4c32)cc1)N1CCOCC1 [Compound 134],<1.0 ug/mL,72.7 nM,10.5 min,142 ×10⁻⁶ cm/s,2007 nM,256 nM
Nc1cc(Cl)ccc1-c1ccc2ncc3ccc(=O)n(-c4ccc(C(=O)N5CCOCC5)cc4)c3c2c1 [Compound 136],8.6 ug/mL,94.5 nM,7.8 min,1290 ×10⁻⁶ cm/s,3591 nM,733 nM
O=C(c1ccc(-n2c(=O)ccc3cnc4ccc(-c5ccc(Cl)cc5)cc4c32)cc1)N1CC2CCC(C1)O2 [Compound 138],<1.0 ug/mL,173 nM,4.8 min,891 ×10⁻⁶ cm/s,1278 nM,277 nM
O=C(c1ccc(-n2c(=O)ccc3cnc4ccc(-c5ccc(Cl)cc5)cc4c32)cc1)N1C2CCC1CC(O)C2 (stereo not drawn) [Compound 139],<1.0 ug/mL,20.6 nM,4.3 min,238 ×10⁻⁶ cm/s,405.1 nM,153 nM
CN1CC2CN(C(=O)c3ccc(-n4c(=O)ccc5cnc6ccc(-c7ccc(Cl)cc7)cc6c54)cc3)CC2C1 (stereo not drawn) [Compound 141],66.5 ug/mL,47.5 nM,4.2 min,1500 ×10⁻⁶ cm/s,8043 nM,260 nM
Cc1cc(-c2ccc3ncc4ccc(=O)n(-c5ccc(C(=O)N6CCOCC6)cc5)c4c3c2)ccc1Cl [Compound 144],<1.0 ug/mL,368 nM,4.1 min,1470 ×10⁻⁶ cm/s,2083 nM,1760 nM
COc1cc(-c2ccc3ncc4ccc(=O)n(-c5ccc(C(=O)N6CCOCC6)cc5)c4c3c2)ccc1Cl [Compound 145],<1.0 ug/mL,60.6 nM,4.9 min,363 ×10⁻⁶ cm/s,1214 nM,266 nM
CN(C)C(=O)c1cc(-c2ccc3ncc4ccc(=O)n(-c5ccc(C(=O)N6CCOCC6)cc5)c4c3c2)ccc1Cl [Compound 146],63 ug/mL,536 nM,9.6 min,98.3 ×10⁻⁶ cm/s,5732 nM,1810 nM
O=C(c1ccc(-n2c(=O)ccc3cnc4ccc(-c5ccc(Cl)c(C(=O)N6CCOCC6)c5)cc4c32)cc1)N1CCOCC1 [Compound 147],>90.0 ug/mL,4810 nM,3.1 min,109 ×10⁻⁶ cm/s,21220 nM,18300 nM
N#Cc1cc(-c2ccc3ncc4ccc(=O)n(-c5ccc(C(=O)N6CCOCC6)cc5)c4c3c2)ccc1Cl [Compound 153],<1.0 ug/mL,127 nM,9.4 min,57.9 ×10⁻⁶ cm/s,18360 nM,52.9 nM
